{"source": "patent US9205121B2", "about": "“Echinacea formulation” (Integria Healthcare (Australia) PTY LTD, priority 2004, dated 2015)", "system": "human liver microsomes", "assay_type": "in vitro ADME", "procedure": "Livers were obtained from organ donors according to procedures is approved by the University of Queensland ethics committees. Samples of human liver were frozen in liquid nitrogen and stored at −70° C. prior to use. Microsomes were prepared according to the method of Guengerich except that microsomes were subjected to a final wash in 10 mM Tris-acetate, 1 mM EDTA and 20% glycerol pH 7.4 (resuspension buffer) to remove residual drugs (e.g. phenytoin—data not shown) present in donor livers.\nIncubations (0.5 mL) with tissue fractions contained either the microsomal fraction at […] or the cytosolic fraction at 5 mg/mL protein in 100 mM potassium phosphate (pH 7.4) supplemented with is substrates (synthetic alkylamides 6, 11, 3 and 12 or the alkylamide fraction from the ethanolic liquid as required—see Figure legends for concentrations used) added from ethanolic stocks. Final ethanol concentrations were either 0.70% or 0.96% and were consistent in each assay. Reactions were initiated by the addition of an NADPH-generating system consisting of (final concentrations) […] NADP+, 10 mM glucose-6-phosphate and 0.5 μ/mL glucose-6-phosphate dehydrogenase. Negative controls and cytosolic incubations lacked an NADPH-generating system. Reaction mixtures were incubated at 37° C. with gentle agitation for the duration of each experiment. Reactions were terminated by addition of an equal volume of 100% methanol to a sample aliquot. Diluted samples were then centrifuged at 16000×g for 2 minutes and supernatants stored at −20° C. until analysis by LCMS.\nAlkylamide concentrations in samples were determined by LCMS using a gradient HPLC system (Shimadzu LC1OAT) coupled to a quadrupole mass spectrometer (Shimadzu, QP8000a) operating in positive SIM mode with an APCI interface. The mobile phases were a mixture of water and acetonitrile. Alkylamides 6 and 3 were detected using a 65% acetonitrile isocratic run. Alkylamides 11 and 12 were detected using an 85% acetonitrile isocratic run. The alkylamide fraction was analysed using a gradient that increased from 20% to 40% acetonitrile over the first 5 minutes, then to 80% acetonitrile over the following 15 minutes and to 100% over the next 3 minutes followed by a re-equilibration period at 20% acetonitrile prior to the next injection. A similar gradient was used in scan and then SIM (M+1 of 248, 264, 246, 192, 280 and 282) modes to identify metabolites of 3. A C18, 3 m, 100×2.00 mm Phenomenex Luna column was used with a solvent flow rate of 0.3 mL/minute. All alkylamides were linear in the range 0.001-10 mg/mL (R^2>0.9) with a coefficient of variation between 4 and 5.\nA number of pure, synthetic alkylamides (6, 11 3 and 12 as shown in FIG. 1) as well as the complex mixture of alkylamides obtained from an ethanolic extract of Echinacea were investigated for their susceptibility to liver P450-mediated degradation in microsomal preparations from four different subjects. The concentration of each substrate remaining at the given time points was quantified with LCMS and rates of substrate depletion were calculated as a percentage of the original concentration. […] From FIG. 3 it can be seen that there was a clear difference in the ability of the liver microsomal P450s to metabolise the synthetic 2-ene and the 2,4-diene alkylamides. […] In contrast, the 2,4-dienes were rapidly metabolised with only 9±2% of the original concentration of 3 and 2±1% of the original concentration of 12 detected after 2 hours. […]", "data": [{"smiles": "C/C=C\\C=C/CC/C=C/C=C/C(=O)NCC(C)C", "note": "[alkylamide 3, (2E,4E,8Z,10Z)—N-isobutyldodeca-2,4,8,10-tetraenamide]", "values": [{"measurement": "rate of alkylamide metabolism relative to the rate found for 6", "value": "seven fold higher"}, {"measurement": "% of initial levels still present", "setting": "human, 2 h, pH 7.4", "value": "66±26", "unit": "%"}]}]}
